This passage reports minimal effective concentration results from patent US10570129B2 (Zoetis Services LLC, priority 2015, dated 2020).

One assay deals with Haemonchus contortus L3. Briefly: microbe, parasite or virus in culture. Format: cell-based. Conditions: Haemonchus contortus, 96 h, read-out: HcL3 Minimal Effective Concentration (MEC).
The next assay relates to D. immitis microfilariae. The assay can be described thus: Dirofilaria immitis, microfilariae (DiMF) in vitro motility assay. Format: cell-based. Conditions: Dirofilaria immitis, 72 h, read-out: DiMF minimally effective dose (MEC).

As to `O=C(NCc1ccnc(Cl)c1)n1c2c(c3cccc(Cl)c31)CN(C/C=C/c1ccc(Cl)cc1)CC2` [Example 267, (E)-6-chloro-2-(3-(4-chlorophenyl)allyl)-N-((2-chloropyridin-4-yl)methyl)-1,2,3,4-tetrahydro-5H-pyrido[4,3-b]indole-5-carboxamide], the figures for the minimal effective concentration in the assay on Haemonchus contortus L3 and in the assay with D. immitis microfilariae were greater than 100 µM and 10 µM, respectively.
The like results for `O=C(NCc1ccnc(Cl)c1)n1c2c(c3cccc(Cl)c31)CN(C/C=C/c1ccc(Cl)c(Cl)c1)CC2` [Example 268, (E)-6-chloro-N-((2-chloropyridin-4-yl)methyl)-2-(3-(3,4-dichlorophenyl)allyl)-1,2,3,4-tetrahydro-5H-pyrido[4,3-b]indole-5-carboxamide] were, in that order, greater than 100 µM and 10 µM.
Taken in the same sequence, the figures for `O=C(NCc1ccnc(Cl)c1)n1c2c(c3cccc(Cl)c31)CN(C/C=C/c1ccc(F)cc1)CC2` [Example 269, (E)-6-chloro-N-((2-chloropyridin-4-yl)methyl)-2-(3-(4-fluorophenyl)allyl)-1,2,3,4-tetrahydro-5H-pyrido[4,3-b]indole-5-carboxamide] were greater than 100 µM and 3.3 µM.
Taken in the same sequence, the figures for `COc1ccc(/C=C/CN2CCc3c(c4cccc(Cl)c4n3C(=O)NCc3ccnc(Cl)c3)C2)cc1` [Example 270, (E)-6-chloro-N-((2-chloropyridin-4-yl)methyl)-2-(3-(4-methoxyphenyl)allyl)-1,2,3,4-tetrahydro-5H-pyrido[4,3-b]indole-5-carboxamide] were greater than 100 µM and 10 µM.
Take `O=C(NCc1ccnc(Cl)c1)n1c2c(c3cccc(Cl)c31)CN(C/C=C/c1ccc(OC(F)(F)F)cc1)CC2` [Example 271, (E)-6-chloro-N-((2-chloropyridin-4-yl)methyl)-2-(3-(4-(trifluoromethoxy)-phenyl)allyl)-1,2,3,4-tetrahydro-5H-pyrido[4,3-b]indole-5-carboxamide]: the minimal effective concentration with Haemonchus contortus L3 is greater than 100 µM; in the assay with D. immitis microfilariae, 5.7 µM.
Taken in the same sequence, the figures for `O=C(NCc1ccnc(Cl)c1)n1c2c(c3cccc(Cl)c31)CN(C/C=C/c1ccc(C(F)(F)F)cc1)CC2` [Example 272, (E)-6-chloro-N-((2-chloropyridin-4-yl)methyl)-2-(3-(4-(trifluoromethyl)-phenyl)allyl)-1,2,3,4-tetrahydro-5H-pyrido[4,3-b]indole-5-carboxamide] were greater than 100 µM and 10 µM.
Taken in the same sequence, the figures for `O=C(NCc1cnc(Cl)s1)n1c2c(c3cccc(Cl)c31)CN(C/C=C/c1ccc(Cl)cc1)CC2` [Example 273, (E)-6-chloro-2-(3-(4-chlorophenyl)allyl)-N-((2-chlorothiazol-5-yl)methyl)-1,2,3,4-tetrahydro-5H-pyrido[4,3-b]indole-5-carboxamide] were greater than 100 µM and 18.2 µM.
As for `O=C(NCc1ccnc(Cl)c1)n1c2c(c3cc(Cl)c(Cl)cc31)CN(C/C=C/c1ccc(Cl)c(F)c1)CC2` [Example 274, (E)-7,8-dichloro-2-(3-(4-chloro-3-fluorophenyl)allyl)-N-((2-chloropyridin-4-yl)methyl)-1,2,3,4-tetrahydro-5H-pyrido[4,3-b]indole-5-carboxamide], the minimal effective concentration in the assay with Haemonchus contortus L3 worked out at 1.8 µM; with D. immitis microfilariae it was 33 µM.
Taken in the same sequence, the figures for `N#Cc1ccc(/C=C/CN2CCc3c(c4cc(Cl)c(Cl)cc4n3C(=O)NCc3ccnc(Cl)c3)C2)cc1F` [Example 275, (E)-7,8-dichloro-N-((2-chloropyridin-4-yl)methyl)-2-(3-(4-cyano-3-fluorophenyl)allyl)-1,2,3,4-tetrahydro-5H-pyrido[4,3-b]indole-5-carboxamide] were 0.3 µM and greater than 100 µM.
The like results for `O=C(NCc1ccnc(Cl)c1)n1c2c(c3cc(Cl)c(Cl)cc31)CN(C/C=C/c1ccc(F)cc1F)CC2` [Example 276, (E)-7,8-dichloro-N-((2-chloropyridin-4-yl)methyl)-2-(3-(2,4-difluorophenyl)allyl)-1,2,3,4-tetrahydro-5H-pyrido[4,3-b]indole-5-carboxamide] were, in that order, 0.3 µM and 18.2 µM.
The like results for `O=C(NCc1ccnc(Cl)c1)n1c2c(c3cc(Cl)c(Cl)cc31)CN(C/C=C/c1ccc(F)c(Cl)c1)CC2` [Example 277, (E)-7,8-dichloro-2-(3-(3-chloro-4-fluorophenyl)allyl)-N-((2-chloropyridin-4-yl)methyl)-1,2,3,4-tetrahydro-5H-pyrido[4,3-b]indole-5-carboxamide] were, in that order, 1 µM and greater than 100 µM.
Consider `O=C(NCc1ccnc(Cl)c1)n1c2c(c3cc(Cl)c(Cl)cc31)CN(C/C=C/c1ccc(F)c(F)c1)CC2` [Example 278, (E)-7,8-dichloro-N-((2-chloropyridin-4-yl)methyl)-2-(3-(3,4-difluorophenyl)allyl)-1,2,3,4-tetrahydro-5H-pyrido[4,3-b]indole-5-carboxamide], for which the minimal effective concentration in the assay on Haemonchus contortus L3 came out at 1.8 µM; with D. immitis microfilariae it was 18.2 µM.
Taken in the same sequence, the figures for `N#Cc1ccc(/C=C/CN2CCc3c(c4cc(Cl)c(Cl)cc4n3C(=O)NCc3ccnc(Cl)c3)C2)cc1` [Example 279, (E)-7,8-dichloro-N-((2-chloropyridin-4-yl)methyl)-2-(3-(4-cyanophenyl)allyl)-1,2,3,4-tetrahydro-5H-pyrido[4,3-b]indole-5-carboxamide] were 1.8 µM and greater than 100 µM.
Taken in the same sequence, the figures for `O=C(NCc1ccnc(Cl)c1)n1c2c(c3cc(Cl)c(Cl)cc31)CN(C/C=C/c1ccc(Cl)cc1)CC2` [Example 280, (E)-7,8-dichloro-2-(3-(4-chlorophenyl)allyl)-N-((2-chloropyridin-4-yl)methyl)-1,2,3,4-tetrahydro-5H-pyrido[4,3-b]indole-5-carboxamide] were 0.3 µM and greater than 100 µM.
Taken in the same sequence, the figures for `O=C(NCc1ccnc(Cl)c1)n1c2c(c3cc(Cl)c(Cl)cc31)CN(C/C=C/c1ccc(Cl)c(Cl)c1)CC2` [Example 281, (E)-7,8-dichloro-N-((2-chloropyridin-4-yl)methyl)-2-(3-(3,4-dichlorophenyl)allyl)-1,2,3,4-tetrahydro-5H-pyrido[4,3-b]indole-5-carboxamide] were 1 µM and greater than 100 µM.
`COc1ccc(/C=C/CN2CCc3c(c4cc(Cl)c(Cl)cc4n3C(=O)NCc3ccnc(Cl)c3)C2)cc1` [Example 283, (E)-7,8-dichloro-N-((2-chloropyridin-4-yl)methyl)-2-(3-(4-methoxyphenyl)allyl)-1,2,3,4-tetrahydro-5H-pyrido[4,3-b]indole-5-carboxamide]: the minimal effective concentration was found to be 0.5 µM with Haemonchus contortus L3 and 3.3 µM with D. immitis microfilariae.
Turning to `O=C(NCc1ccnc(Cl)c1)n1c2c(c3cc(Cl)c(Cl)cc31)CN(C/C=C/c1ccc(OC(F)(F)F)cc1)CC2` [Example 284, (E)-7,8-dichloro-N-((2-chloropyridin-4-yl)methyl)-2-(3-(4-(trifluoro-methoxy)phenyl)allyl)-1,2,3,4-tetrahydro-5H-pyrido[4,3-b]indole-5-carboxamide], the minimal effective concentration in the assay with Haemonchus contortus L3 was greater than 100 µM; in the assay with D. immitis microfilariae it was 10 µM.
Taken in the same sequence, the figures for `O=C(NCc1ccnc(Cl)c1)n1c2c(c3cc(Cl)c(Cl)cc31)CN(C/C=C/c1ccc(C(F)(F)F)cc1)CC2` [Example 285, (E)-7,8-dichloro-N-((2-chloropyridin-4-yl)methyl)-2-(3-(4-(trifluoromethyl)-phenyl)allyl)-1,2,3,4-tetrahydro-5H-pyrido[4,3-b]indole-5-carboxamide] were greater than 100 µM and 10 µM.
Taken in the same sequence, the figures for `O=C(NCc1ccnc(F)c1)n1c2c(c3cc(Cl)c(Cl)cc31)CN(C/C=C/c1ccc(Cl)cc1)CC2` [Example 292, (E)-7,8-dichloro-2-(3-(4-chlorophenyl)allyl)-N-((2-fluoropyridin-4-yl)methyl)-1,2,3,4-tetrahydro-5H-pyrido[4,3-b]indole-5-carboxamide] were 3.3 µM and 5.7 µM.
Taken in the same sequence, the figures for `O=C(NCc1ccnc(F)c1)n1c2c(c3c(Cl)c(Cl)ccc31)CN(C/C=C/c1ccc(Cl)cc1)CC2` [Example 293, (E)-8,9-dichloro-2-(3-(4-chlorophenyl)allyl)-N-((2-fluoropyridin-4-yl)methyl)-1,2,3,4-tetrahydro-5H-pyrido[4,3-b]indole-5-carboxamide] were 3.3 µM and 5.7 µM.
Regarding `O=C(NCc1cnc(Cl)s1)n1c2c(c3cc(Cl)c(Cl)cc31)CN(C/C=C/c1ccc(Cl)cc1)CC2` [Example 294, (E)-7,8-dichloro-2-(3-(4-chlorophenyl)allyl)-N-((2-chlorothiazol-5-yl)methyl)-1,2,3,4-tetrahydro-5H-pyrido[4,3-b]indole-5-carboxamide], the results for the minimal effective concentration in the assay with Haemonchus contortus L3 and with D. immitis microfilariae were greater than 100 µM and 10 µM, respectively.
In the case of `O=C(NCc1cnc(Cl)s1)n1c2c(c3c(Cl)c(Cl)ccc31)CN(C/C=C/c1ccc(Cl)cc1)CC2` [Example 295, (E)-8,9-dichloro-2-(3-(4-chlorophenyl)allyl)-N-((2-chlorothiazol-5-yl)methyl)-1,2,3,4-tetrahydro-5H-pyrido[4,3-b]indole-5-carboxamide], the minimal effective concentration is greater than 100 µM in the assay with Haemonchus contortus L3 and 18.2 µM in the assay with D. immitis microfilariae.
For the molecule `N#Cc1cc2c(cc1Cl)c1c(n2C(=O)NCc2ccnc(Cl)c2)CCN(C/C=C/c2ccc(Cl)cc2)C1` [Example 296, (E)-8-chloro-2-(3-(4-chlorophenyl)allyl)-N-((2-chloropyridin-4-yl)methyl)-7-cyano-1,2,3,4-tetrahydro-5H-pyrido[4,3-b]indole-5-carboxamide], the results for the minimal effective concentration with Haemonchus contortus L3 and with D. immitis microfilariae were 1 µM and greater than 100 µM, respectively.
